Reference: PMC6271338, “Synthesis and Cytotoxic Evaluation of Alkoxylated Chalcones” (Molecules, 2014)

Legend:
[1] = Cytotoxicity (SRB) against non-tumoral HMLE cells; assay type: cell-based, human; details: human, HMLE cells (non-tumoral human mammary epithelial cells); increasing concentrations up to 100 μM; mean ± SD of at least three independent experiments; read-out: Normal Human Cell Lines, CC50, HMLE
HeLa cells = assay: In vitro anti-proliferative SRB assay, HeLa; assay type: cell-based, human; details: for IC50: Homo sapiens, HeLa, increasing concentrations up to 30 μM, mean ± SD of at least three independent experiments; for SI (CC50 HMLE/IC50 Hela) / SI (CC50 L02/IC50 Hela): selectivity index; for SI (CC50 HMLE/IC50 Hela): HMLE vs HeLa; for SI (CC50 L02/IC50 Hela): L02 vs HeLa
HepG2 cells = assay: In vitro anti-proliferative SRB assay, HepG2; assay type: cell-based, human; details: for IC50: Homo sapiens, HepG2, increasing concentrations up to 30 μM, mean ± SD of at least three independent experiments; for SI (CC50 HMLE/IC50 HepG2) / SI (CC50 L02/IC50 HepG2): selectivity index; for SI (CC50 HMLE/IC50 HepG2): HMLE vs HepG2; for SI (CC50 L02/IC50 HepG2): L02 vs HepG2
[2] = Cytotoxicity (SRB) against non-tumoral L02 cells; assay type: cell-based, human; details: human, L02 cells (non-tumoral human liver cell line); increasing concentrations up to 100 μM; mean ± SD of at least three independent experiments; read-out: Normal Human Cell Lines, CC50, L02
SW1990 cells = assay: In vitro anti-proliferative SRB assay, SW1990; assay type: cell-based, human; details: for IC50: Homo sapiens, SW1990, increasing concentrations up to 30 μM, mean ± SD of at least three independent experiments; for SI (CC50 HMLE/IC50 SW1990) / SI (CC50 L02/IC50 SW1990): selectivity index; for SI (CC50 HMLE/IC50 SW1990): HMLE vs SW1990; for SI (CC50 L02/IC50 SW1990): L02 vs SW1990
MCF-7 cells = assay: In vitro anti-proliferative SRB assay, MCF-7; assay type: cell-based, human; details: for IC50: Homo sapiens, MCF7, increasing concentrations up to 30 μM, mean ± SD of at least three independent experiments; for SI (CC50 HMLE/IC50 MCF7) / SI (CC50 L02/IC50 MCF7): selectivity index; for SI (CC50 HMLE/IC50 MCF7): HMLE vs MCF7; for SI (CC50 L02/IC50 MCF7): L02 vs MCF7
A549 cells = assay: In vitro anti-proliferative SRB assay, A549; assay type: cell-based, human; details: for IC50: Homo sapiens, A549, increasing concentrations up to 30 μM, mean ± SD of at least three independent experiments; for SI (CC50 HMLE/IC50 A549) / SI (CC50 L02/IC50 A549): selectivity index; for SI (CC50 HMLE/IC50 A549): HMLE vs A549; for SI (CC50 L02/IC50 A549): L02 vs A549
[3] = test system: five human cancer cell lines (HepG2, HeLa, MCF-7, A549 and SW1990); assay: In vitro anti-proliferative SRB assay, summary statements over the five-line panel; assay type: cell-based
Method: With a aim of identifying potential anticancer agents with enhanced levels of activity, as well as verifying the conclusions provided above, we took a14 as a starting compound, and then designed and synthesized a series of chalcones b1–42 bearing methoxy groups at the 2' and 6'-positions of the B-ring, whilst varying the substituents on the A-ring. The cytotoxicities of the resulting chalcones were evaluated in vitro against five human cancer cell lines and other two non-tumoral cell lines, including HepG2, HeLa, MCF-7, A549, SW1990, HMLE and L02, and the results are shown in Table 2.
HepG2 and MCF7 cells were grown in the Eagle’s minimum essential medium with Earle’s balanced salts (MEM-EBSS) medium, HeLa, A549 and L02 cells were grown in Dulbecco’s Modified Eagle Media (DMEM), SW1990 cells were grown in RPMI-1640 medium, and HMLE cell were grown in DMEM/F-12 medium. The media were supplemented with 100 U/mL penicillin, […] streptomycin and 10% fetal bovine serum (FBS), and incubated at 37 °C in a humidified atmosphere containing 5% CO2.
Cells were seeded into 96-well plates (4000 cells/well) and incubated at 37 °C in a humidified 5% CO2 atmosphere. After 24 h, the cells were treated with different concentrations of the compounds for 48 h in triplicate to generate dose-response curves. Cell viability was evaluated using the sulforhodamine B (SRB) assay as previous described. […] Etoposide was used as the positive control.

[4] = most of their in vitro IC50 values against the five human cancer lines
[5] = Homo sapiens, nearly all of the IC50 values

| SMILES | IC50 (HeLa cells) [µM] | IC50 (HepG2 cells) [µM] | IC50 (SW1990 cells) [µM] | IC50 (MCF-7 cells) [µM] | IC50 (A549 cells) [µM] | melting point [°C] | IC50 [3, 4] [µM] | IC50 [3, 5] [µM] | CC50 at 48 h [1] [µM] | SI (CC50 HMLE/IC50 Hela) (HeLa cells) | SI (CC50 L02/IC50 Hela) (HeLa cells) | SI (CC50 HMLE/IC50 HepG2) (HepG2 cells) | SI (CC50 L02/IC50 HepG2) (HepG2 cells) | CC50 at 48 h [2] [µM] | SI (CC50 HMLE/IC50 SW1990) (SW1990 cells) | SI (CC50 L02/IC50 SW1990) (SW1990 cells) | SI (CC50 HMLE/IC50 MCF7) (MCF-7 cells) | SI (CC50 L02/IC50 MCF7) (MCF-7 cells) | SI (CC50 HMLE/IC50 A549) (A549 cells) | SI (CC50 L02/IC50 A549) (A549 cells) | also measured |
| --- | --- | --- | --- | --- | --- | --- | --- | --- | --- | --- | --- | --- | --- | --- | --- | --- | --- | --- | --- | --- | --- |
| CCOc1ccc(C(=O)/C=C/c2c(OC)cccc2OC)cc1OC [b16, (E)-1-(4-Ethoxy-3-methoxyphenyl)-3-(2,6-dimethoxyphenyl)prop-2-en-1-one] | 5.02 ± 0.09 | 4.14 ± 0.11 | 7.67 ± 0.04 | 4.79 ± 0.13 | 5.78 ± 0.11 | 105.3 to 107.2 | < 10 | – | 9.15 ± 1.33 | 1.8 | 8.9 | 2.2 | 10.8 | 44.7 ± 8.15 | 1.2 | 5.8 | 1.9 | 9.3 | 1.6 | 7.7 | – |
| COc1cccc(OC)c1/C=C/C(=O)c1ccc(-c2ccccc2)cc1 [b22, (E)-1-([1,1'-Biphenyl]-4-yl)-3-(2,6-dimethoxyphenyl)prop-2-en-1-one] | 0.87 ± 0.25 | 0.25 ± 0.03 | 1.24 ± 0.08 | 2.4 ± 0.08 | 1.75 ± 0.15 | 121.7 to 123.5 | < 10 | – | 2.21 ± 0.09 | 2.5 | 16.7 | 8.8 | 58.2 | 14.5 ± 6.58 | 1.8 | 11.7 | 0.9 | 6.1 | 1.3 | 8.3 | fold as potent than etoposide (HepG2 cells; HepG2 cells, ratio of IC50 values versus etoposide): 20.4 fold; fold as potent than etoposide (SW1990 cells; SW1990 cells, ratio of IC50 values versus etoposide): 23.6 fold |
| COc1cccc(OC)c1/C=C/C(=O)c1cccc([N+](=O)[O-])c1 [b39, (E)-1-(3-Nitrophenyl)-3-(2,6-dimethoxyphenyl)prop-2-en-1-one] | > 30 | > 30 | > 30 | > 30 | > 30 | 172.3 to 173.7 | – | > 30 | > 100 | – | – | – | – | > 100 | – | – | – | – | – | – | – |
| COc1cccc(OC)c1/C=C/C(=O)c1ccc([N+](=O)[O-])cc1 [b40, (E)-1-(4-Nitrophenyl)-3-(2,6-dimethoxyphenyl)prop-2-en-1-one] | > 30 | > 30 | > 30 | > 30 | > 30 | 147.3 to 148.6 | – | > 30 | > 100 | – | – | – | – | > 100 | – | – | – | – | – | – | – |
| COc1cccc(OC)c1/C=C/C(=O)c1cccc(C(F)(F)F)c1 [b41, (E)-1-(3-(Trifluoromethyl)phenyl)-3-(2,6-dimethoxyphenyl)prop-2-en-1-one] | 29.1 ± 3.06 | 24.4 ± 5.87 | > 30 | > 30 | > 30 | 145.3 to 146.7 | – | > 30 | > 100 | >3.4 | >3.4 | >4.1 | >4.1 | > 100 | – | – | – | – | – | – | – |

Continued, in another order:

| IC50 (HeLa cells) [µM] | IC50 (HepG2 cells) [µM] | IC50 (SW1990 cells) [µM] | IC50 (MCF-7 cells) [µM] | IC50 (A549 cells) [µM] | melting point [°C] | IC50 [3, 4] [µM] | IC50 [3, 5] [µM] | SMILES | CC50 at 48 h [1] [µM] | SI (CC50 HMLE/IC50 Hela) (HeLa cells) | SI (CC50 L02/IC50 Hela) (HeLa cells) | SI (CC50 HMLE/IC50 HepG2) (HepG2 cells) | SI (CC50 L02/IC50 HepG2) (HepG2 cells) | CC50 at 48 h [2] [µM] | SI (CC50 HMLE/IC50 SW1990) (SW1990 cells) | SI (CC50 L02/IC50 SW1990) (SW1990 cells) | SI (CC50 HMLE/IC50 MCF7) (MCF-7 cells) | SI (CC50 L02/IC50 MCF7) (MCF-7 cells) | SI (CC50 HMLE/IC50 A549) (A549 cells) | SI (CC50 L02/IC50 A549) (A549 cells) | also measured |
| --- | --- | --- | --- | --- | --- | --- | --- | --- | --- | --- | --- | --- | --- | --- | --- | --- | --- | --- | --- | --- | --- |
| 4.56 ± 0.22 | 1.59 ± 0.15 | 9.64 ± 0.18 | 5.6 ± 0.06 | 4.16 ± 0.72 | 121 to 122 | < 10 | – | COc1ccc(OC)c(C(=O)/C=C/c2c(OC)cccc2OC)c1 [b18, (E)-1-(2,5-Dimethoxyphenyl)-3-(2,6-dimethoxyphenyl)prop-2-en-1-one] | 2.48 ± 0.34 | 0.5 | 3.7 | 1.6 | 10.7 | 17 ± 2.73 | 0.3 | 1.8 | 0.4 | 3.0 | 0.6 | 4.1 | – |
| 7.23 ± 0.07 | 5.7 ± 0.09 | 10.07 ± 0.03 | 8.56 ± 0.75 | 7.32 ± 0.29 | 148.6 to 150.3 | < 10 | – | COc1cccc(OC)c1/C=C/C(=O)c1cccc(N)c1 [b23, (E)-1-(3-Aminophenyl)-3-(2,6-dimethoxyphenyl)prop-2-en-1-one] | 11.4 ± 0.76 | 1.6 | 6.0 | 2.0 | 7.6 | 43.2 ± 11.7 | 1.1 | 4.3 | 1.3 | 5.0 | 1.6 | 5.9 | – |
| > 30 | 20.4 ± 0.21 | > 30 | > 30 | > 30 | 144.3 to 145.9 | – | > 30 | COc1cccc(OC)c1/C=C/C(=O)c1ccc(C#N)cc1 [b30, (E)-1-(4-Cyanophenyl)-3-(2,6-dimethoxyphenyl)prop-2-en-1-one] | 12.6 ± 2.82 | <0.4 | – | 0.6 | >4.9 | > 100 | <0.4 | – | <0.4 | – | <0.4 | – | – |
| > 30 | > 30 | > 30 | > 30 | > 30 | 126.5 to 127.8 | – | > 30 | COc1cccc(OC)c1/C=C/C(=O)c1cc(C(F)(F)F)cc(C(F)(F)F)c1 [b42, (E)-1-(3,5-bis(Trifluoromethyl)phenyl)-3-(2,6-dimethoxyphenyl)prop-2-en-1-one] | > 100 | – | – | – | – | > 100 | – | – | – | – | – | – | – |
